# Test: xn = mol fraction of the nth substance listed
# Conditions: 100 kPa
smiles,measurement,setting,value
CCCCCC[n+]1ccn(C)c1.O=[N+]([O-])[O-] + CCCC(C)O,viscosity,"293.15 K, x1 = 0.0814",8.28 mPa·s
same,viscosity,"293.15 K, x1 = 0.1609",14.69 mPa·s
same,viscosity,"293.15 K, x1 = 0.3491",42.8 mPa·s
same,viscosity,"293.15 K, x1 = 0.4393",69 mPa·s
same,viscosity,"293.15 K, x1 = 0.5608",122.5 mPa·s
same,viscosity,"293.15 K, x1 = 0.6509",177 mPa·s
same,viscosity,"293.15 K, x1 = 0.9393",614 mPa·s
same,viscosity,"293.15 K, x1 = 1",804 mPa·s
same,viscosity,"298.15 K, x1 = 0.0814",6.18 mPa·s
same,viscosity,"298.15 K, x1 = 0.2408",16.18 mPa·s
same,viscosity,"298.15 K, x1 = 0.3491",29 mPa·s
same,viscosity,"298.15 K, x1 = 0.4393",44.8 mPa·s
same,viscosity,"298.15 K, x1 = 0.5608",79.4 mPa·s
same,viscosity,"298.15 K, x1 = 0.6509",117.2 mPa·s
same,viscosity,"298.15 K, x1 = 0.7401",173.4 mPa·s
same,viscosity,"298.15 K, x1 = 0.8508",285 mPa·s
same,viscosity,"298.15 K, x1 = 0.9393",416 mPa·s
same,viscosity,"298.15 K, x1 = 1",545 mPa·s
same,viscosity,"303.15 K, x1 = 0.1609",7.26 mPa·s
same,viscosity,"303.15 K, x1 = 0.2408",11.09 mPa·s
same,viscosity,"303.15 K, x1 = 0.3491",19.05 mPa·s
same,viscosity,"303.15 K, x1 = 0.4393",29.4 mPa·s
same,viscosity,"303.15 K, x1 = 0.5608",50.9 mPa·s
same,viscosity,"303.15 K, x1 = 0.6509",76.9 mPa·s
same,viscosity,"303.15 K, x1 = 0.8508",189 mPa·s
same,viscosity,"303.15 K, x1 = 0.9393",282 mPa·s
same,viscosity,"303.15 K, x1 = 1",369 mPa·s
same,viscosity,"308.15 K, x1 = 0.0814",3.48 mPa·s
same,viscosity,"308.15 K, x1 = 0.1609",5.08 mPa·s
same,viscosity,"308.15 K, x1 = 0.2408",7.43 mPa·s
same,viscosity,"308.15 K, x1 = 0.3491",12.22 mPa·s
same,viscosity,"308.15 K, x1 = 0.4393",18.45 mPa·s
same,viscosity,"308.15 K, x1 = 0.5608",32 mPa·s
same,viscosity,"308.15 K, x1 = 0.6509",49.3 mPa·s
same,viscosity,"308.15 K, x1 = 0.8508",125.3 mPa·s
same,viscosity,"308.15 K, x1 = 0.9393",195 mPa·s
same,viscosity,"308.15 K, x1 = 1",258 mPa·s
same,viscosity,"313.15 K, x1 = 0.1609",3.72 mPa·s
same,viscosity,"313.15 K, x1 = 0.2408",5.31 mPa·s
same,viscosity,"313.15 K, x1 = 0.3491",8.55 mPa·s
same,viscosity,"313.15 K, x1 = 0.4393",12.22 mPa·s
same,viscosity,"313.15 K, x1 = 0.5608",21.2 mPa·s
same,viscosity,"313.15 K, x1 = 0.6509",33 mPa·s
same,viscosity,"313.15 K, x1 = 0.7401",50.1 mPa·s
same,viscosity,"313.15 K, x1 = 0.8508",85.7 mPa·s
same,viscosity,"313.15 K, x1 = 0.9393",136.2 mPa·s
same,viscosity,"313.15 K, x1 = 1",186 mPa·s
same,viscosity,"318.15 K, x1 = 0.0814",2.12 mPa·s
same,viscosity,"318.15 K, x1 = 0.1609",2.81 mPa·s
same,viscosity,"318.15 K, x1 = 0.2408",3.76 mPa·s
same,viscosity,"318.15 K, x1 = 0.3491",5.85 mPa·s
same,viscosity,"318.15 K, x1 = 0.4393",8.65 mPa·s
same,viscosity,"318.15 K, x1 = 0.5608",14.52 mPa·s
same,viscosity,"318.15 K, x1 = 0.6509",22.4 mPa·s
same,viscosity,"318.15 K, x1 = 0.7401",34.9 mPa·s
same,viscosity,"318.15 K, x1 = 0.8508",61.8 mPa·s
same,viscosity,"318.15 K, x1 = 0.9393",99.7 mPa·s
same,viscosity,"318.15 K, x1 = 1",140.2 mPa·s
same,viscosity,"323.15 K, x1 = 0.1609",2.11 mPa·s
same,viscosity,"323.15 K, x1 = 0.2408",2.74 mPa·s
same,viscosity,"323.15 K, x1 = 0.3491",4.09 mPa·s
same,viscosity,"323.15 K, x1 = 0.4393",6.05 mPa·s
same,viscosity,"323.15 K, x1 = 0.5608",10.28 mPa·s
same,viscosity,"323.15 K, x1 = 0.7401",25.8 mPa·s
same,viscosity,"323.15 K, x1 = 0.8508",47.3 mPa·s
same,viscosity,"323.15 K, x1 = 0.9393",76.9 mPa·s
CCCC(C)O (configuration not stated) + CCCCCC[n+]1ccn(C)c1.O=[N+]([O-])[O-],viscosity,"293.15 K, x2 = 0",3.97 mPa·s
same,viscosity,"298.15 K, x2 = 0",3.32 mPa·s
same,viscosity,"303.15 K, x2 = 0",2.81 mPa·s
same,viscosity,"308.15 K, x2 = 0",2.37 mPa·s
same,viscosity,"313.15 K, x2 = 0",1.99 mPa·s
same,viscosity,"318.15 K, x2 = 0",1.66 mPa·s

# Reference: a compilation of properties of binary mixtures (doi:10.1016/j.fluid.2019.112324)
